Literature values as cited in patent publication US6855513B1 (priority 1999, dated 2005).

Tested on: P. aeruginosa lasI mutant biofilm
Conditions: flow-through chamber; resistance to 0.2% sodium dodecyl sulfate; cited from earlier work

CCCCCCCCCC(=O)CC(=O)N[C@H]1CCOC1=O [3OC12-HSL, N-(3-oxododecanoyl) homoserine lactone]
Biofilm phenotype after adding signal back to lasI mutant cells: wild type phenotype was restored
